The record followed here is patent US20080220528A1, “HIV GENE CLONING STRATEGY” (SCHERING CORPORATION, priority 2006, published 2008).

In assay [1] the test system is replication competent HIV-1 virus containing the ADA-C2-V5res chimeric envelope sequence (NL4-3-AD8-C2-V5res). In words: Vicriviroc susceptibility assay with replication competent virus in U87-CD4-CCR5 cells. It is filed as cell-based. The following applies: multi-cycle infection. From the text: (§1) The pNL4-3-AD8 molecular clone was modified by deleting 650 bp of cDNA sequence flanking the 5′LTR, thereby creating a unique Stu I site within gp120. The ADA-V3res and ADA-C2-V5res chimeric envelopes were digested with StuI and AleI restriction endonucleases and the 1.2 kb env fragments corresponding to at 203-608 (HXB2 gp160 aa coordinates) were gel purified on 1% agarose. These fragments were cloned directly into pNL4-3-AD8 digested with the same restriction endonucleases and all constructs were verified by DNA sequence analysis.
(§2) 293T cells were transfected with pNL4-3-AD8, pNL4-3-AD8-C2-V5res, and pNL4-3-AD8-V3res molecular clones using Superfect transfection reagent (Qiagen Corp., Vencia, Calif.) and HIV-1 virus was harvested in supernatants 48 hr post transfection.
(§3) CCR5 inhibitor resistance was previously reported to be influenced by the assay format in which resistance is evaluated (Pugach, P., et al (2007). Virology 361(1), 212-28). […] In order to evaluate differences in susceptibility profiles between single-cycle and multi-cycle infection assays in U87-CD4-CCR5 cells, we generated replication competent viruses expressing the chimeric gp120 envelopes. Restriction fragments corresponding to HXB2 aa 203-608 within ADA-V3res and ADA-C2-V5res chimeric envelopes were transferred to an NL4-3-AD8 HIV-1 molecular clone by unique restriction-site digestion and relegation. […]

Assay [2] deals with RU570 passage control virus (RU570-PC). The assay is described as follows: Viral replication assay in PBL (p24 ELISA), passage control culture. Type of assay: cell-based, HIV-1. The following applies: through 93 weeks of cell culture. The protocol: The Hut 78 derived PM-1 (Lusso, P., et al (1995). J Virol 69(6), 3712-20) T-cell line was infected with a parental PBL stock of HIV-1 RU570 for one week prior to the initiation of vicriviroc selection starting at 0.1 nM. PM-1 cell cultures were passaged weekly by transferring 1 ml of cell culture supernatant and one tenth of the infected cells into fresh PM-1 cultures (1-2×10^6) in the absence (passage control culture, RU570-PC) or presence (RU570-VCV) of vicriviroc. Culture supernatants were subsequently used to re-infect fresh PM-1 cells weekly. Viral supernatants and infected cells were collected periodically for p24 antigen titers, vicriviroc sensitivity testing in PBL described below in the viral replication assay section, and sequence analysis. […]
IL-2/PHA-stimulated PBL were seeded into 96-well plates (200,000 cells/well) pretreated with an equal volume of medium plus vicriviroc or medium only at 37° C. for 1 hour. […] Viral replication was assessed by measuring p24 antigen production by ELISA. The IC50 and IC90 values for vicriviroc susceptibility with these viruses was determined by analyzing dose-response curves using a 4-parameter logistic curve fit model with Prism GraphPad Software Version 4.0 (San Diego, Calif.).

Assay [3] has as its system pseudovirus with RU570-PC-C2-V5res chimeric envelope. In words: Single-cycle HIV-1 pseudovirus assay, effect of viral inoculum. The following applies: very high inoculum, 90 ng p24. It is filed as cell-based. Here is the method:
HIV-1 pseudoviruses were produced in 293T cells by calcium phosphate transfection of pNL4-3E^−Luc^+ and HIV-1 envelope expression vectors using ProFection® Mammalian Transfection system (Promega Corp., Madison, Wis.). HIV-1 pseudovirus was harvested in culture supernatants 48 hrs post-transfection and supernatants were clarified of cell debris by centrifugation at 1500 g for 10 min. Single-cycle infection assays were generally performed on the same day HIV-1 pseudovirus was harvested. To assess susceptibility to CCR5 co-receptor antagonists, 5,000 U87-CD4-CCR5 cells/well were seeded into 96-well luminometer plates (Perkin Elmer) and plates were incubated overnight at 37° C. […] Plates were incubated for 72 hours, and luciferase activity was analyzed by adding 50 μl of BrightGlo™ luciferase assay buffer and plates were read on a Dynex luminometer (300 mSec/well). Relative light units (RLU) were normalized to virus dose, measured as ng p24, and percent inhibition, was calculated as follows: 100−[average normalized RLU for HIV-1 pseudovirus plus drug/average normalized RLU for HIV-1 pseudovirus from control wells without drug]×100. Dose-response data was analyzed using a non-linear regression 4-parameter logistic curve fit program with Prism GraphPad Software Version 4.0 (San Diego, Calif.).

The subject of another assay is NL4-3-AD8-V3res virus. In words: Vicriviroc susceptibility assay with replication competent virus in U87-CD4-CCR5 cells. It is filed as cell-based, HIV-1. The note with it: Human immunodeficiency virus 1, NL43, multi-cycle infection.
Text: as §1, §2, §3

Another assay relates to NL4-3-AD8 virus. The description is as above. Type of assay: cell-based, HIV-1. The following applies: Human immunodeficiency virus 1, NL43, multi-cycle infection.
Text: as §1, §2, §3

The test system of assay [4] is pseudoviruses with ADA-V3res chimeric envelope. In words: Single-cycle HIV-1 pseudovirus luciferase assay in U87-CD4-CCR5 cells. It is filed as cell-based. The protocol: (§4) Homologous recombination of the V2-C5 gp120 fragment from RU570-PC gp120 clone #16 and RU570-VCVres gp120 clone #8 was performed following restriction endonuclease digestion of constructs with MfeI and gel purification of the 838 bp V2-C5 gp120 fragments (HXB2 gp120 nucleotides 533-1431; gp120 at position 185-478). The pSV7d-ADA gp160 expression vector was digested with BglII and BstZ17I restriction endonucleases, alkaline phosphatase treated and the 5.1 kb vector was gel purified on 1% agarose. A 50:1 ratio of V2-C5res gp120 fragment to vector was used to transform chemically-competent BJ5183 E. coli, and individual colonies were screened by PCR for successful recombination.
(§5) HIV-1 pseudoviruses were produced in 293T cells by calcium phosphate transfection of pNL4-3E^−Luc^+ and HIV-1 envelope expression vectors using ProFection® Mammalian Transfection system (Promega Corp., Madison, Wis.). HIV-1 pseudovirus was harvested in culture supernatants 48 hrs post-transfection and supernatants were clarified of cell debris by centrifugation at 1500 g for 10 min. Single-cycle infection assays were generally performed on the same day HIV-1 pseudovirus was harvested. To assess susceptibility to CCR5 co-receptor antagonists, 5,000 U87-CD4-CCR5 cells/well were seeded into 96-well luminometer plates (Perkin Elmer) and plates were incubated overnight at 37° C. The next day serial 10-fold dilutions of inhibitor in cell culture medium ([…]) were added to wells one hour prior to the addition of HIV-1 pseudovirus plus inhibitor. Plates were incubated for 72 hours, and luciferase activity was analyzed by adding 50 μl of BrightGlo™ luciferase assay buffer and plates were read on a Dynex luminometer (300 mSec/well). Relative light units (RLU) were normalized to virus dose, measured as ng p24, and percent inhibition, was calculated as follows: 100−[average normalized RLU for HIV-1 pseudovirus plus drug/average normalized RLU for HIV-1 pseudovirus from control wells without drug]×100. Dose-response data was analyzed using a non-linear regression 4-parameter logistic curve fit program with Prism GraphPad Software Version 4.0 (San Diego, Calif.).

Assay [5] has as its system pseudoviruses with ADA-C2-V5res chimeric envelope. The assay is described as above. Type of assay: cell-based. Here is the method:
as §4, §5

In assay [6] the test system is HIV-1 particles pseudotyped with ADA gp160. The assay is described as above. Type of assay: cell-based. The protocol: as §5
Assay [7] concerns HIV-1 particles pseudotyped with VCVres chimeric RU570-PC envelopes (RU570-PC-C2-C3res, -C2-V4res, -C2-V5res). The assay is described as above. Type of assay: cell-based. Here is the method: as §5
In assay [8] the test system is HIV-1 particles pseudotyped with RU570-PC gp160 envelope. Described as above. It is filed as cell-based. Here is the method: as §5
For the next assay, the system named is RU570-VCV virus. In words: Viral replication assay in PBL (p24 ELISA), vicriviroc-passaged culture. Type of assay: cell-based, HIV-1. Here is the method: The Hut 78 derived PM-1 (Lusso, P., et al (1995). J Virol 69(6), 3712-20) T-cell line was infected with a parental PBL stock of HIV-1 RU570 for one week prior to the initiation of vicriviroc selection starting at 0.1 nM. PM-1 cell cultures were passaged weekly by transferring 1 ml of cell culture supernatant and one tenth of the infected cells into fresh PM-1 cultures (1-2×10^6) in the absence (passage control culture, RU570-PC) or presence (RU570-VCV) of vicriviroc. Culture supernatants were subsequently used to re-infect fresh PM-1 cells weekly. Viral supernatants and infected cells were collected periodically for p24 antigen titers, vicriviroc sensitivity testing in PBL described below in the viral replication assay section, and sequence analysis. […] To select for minor populations of highly resistant variants that may have emerged, the concentration of vicriviroc was escalated to 10 μM at week 36 and cultures were maintained in 10 μM vicriviroc until viral replication remained consistent. By approximately week 56, VCV-treated cultures were replicating to similar levels compared to the passage control cultures and maintained consistently robust growth up to 93 weeks when cultures were terminated.
IL-2/PHA-stimulated PBL were seeded into 96-well plates (200,000 cells/well) pretreated with an equal volume of medium plus vicriviroc or medium only at 37° C. for 1 hour. The plates were centrifuged at 300 g for 10 min and the media aspirated and replaced with 20 μl of fresh medium with or without compound. The cells were then infected in triplicate using 20 μl of viral supernatant (RU570) from 3 hr to overnight at 37° C. The cells were washed twice with PBS to remove residual viral inoculums and cultured in the presence or absence of vicriviroc for 4-6 days. Viral replication was assessed by measuring p24 antigen production by ELISA. The IC50 and IC90 values for vicriviroc susceptibility with these viruses was determined by analyzing dose-response curves using a 4-parameter logistic curve fit model with Prism GraphPad Software Version 4.0 (San Diego, Calif.).
(In general: An ELISA detects its analyte on a solid surface through an enzyme-linked reagent.)

The mark [9] stands for this setting: Human immunodeficiency virus 1, U87/CD4/CCR5.

As a reminder, the IC50 is the concentration that gives 50% inhibition. What is called inhibition is the change of the read-out against control, counted positive when it falls.

`COC[C@@H](c1ccc(C(F)(F)F)cc1)N1CCN(C2(C)CCN(C(=O)c3c(C)ncnc3C)CC2)C[C@@H]1C` [vicriviroc, Vicriviroc]: the “MI (maximum inhibition)” value in assay [1] is “approximately 50%”. Further, the susceptibility to vicriviroc entry in [2] was “remained susceptible”; in [4] it was “completely susceptible”. Also, the maximum inhibition in assay [3] and in assay [8] ({}) was 100% throughout. In addition, the IC50 in the assay with NL4-3-AD8-V3res virus was 0.025 nM; in the assay with NL4-3-AD8 virus it was 0.025 nM; in assay [6] (setting [9]), 0.04 nM; in [7] (setting [9]) it was 0.07 to 0.2 nM; in assay [8] (setting [9]) it was 0.1 nM; in the assay with RU570-VCV virus (Human immunodeficiency virus 1, RU570-VCV culture until week 45, PBL) it was less than 50 nM. Also, the “maximum inhibition (MI), plateau level” value in assay [5] (2 ng p24 inoculum) is “approximately 80%”; in assay [5] (high virus inocula, 70 ng p24), “approximately 55%”. Further, the “susceptibility to vicriviroc (phenotype)” value in [5] (ADA-C2-V5res pseudovirus, U87-CD4-CCR5 cells) is “resistant phenotype”. Moreover, in assay [6] (Human immunodeficiency virus 1, U87/CD4/CCR5, read-out: maximum response, percent inhibition), the Emax came to 100%. For the same molecule, the MI values in assay [6] (parental ADA gp160, regardless of the virus concentration (data not shown)) was determined as 100%; in assay [8] (RU570-PC 160 construct, regardless of the virus concentration (data not shown)) it was 100%. The inhibition at 0.1 µM in assay [7] (Human immunodeficiency virus 1, U87/CD4/CCR5, read-out: maximum inhibition levels) turned out to be 100%. Further, the maximum percent inhibition in the assay with RU570-VCV virus (RU570-VCV culture until week 45, PBL) was 100%; with RU570-VCV virus (RU570-VCV culture week 93, PBL, flat dose-response curve) it was “approximately 30%”. Further, the maximal percent inhibition entry was “approximately 76%” with RU570-VCV virus (RU570-VCV culture week 45, PBL) and roughly 45% with RU570-VCV virus (RU570-VCV culture week 47, PBL).
